According to ChEMBL document CHEMBL6153141, “Design, Synthesis, and Mechanism Study of Novel BMX Inhibitors Based on the Core of 1,3,5-Triazin-2-Amine for the Treatment of Gastric Carcinoma” (J Med Chem, 2025):
Calls of active or inactive are those of the source. The rule behind the calls is not given here.

Columns and labels:
[1] = system: 4T1; test: Anticancer activity against mouse 4T1 cells assessed as inhibition of cell proliferation incubated for 72 hrs by MTT assay; type: functional, cell-based; details: 4T1, 72 h
[2] = system: HGC-27; test: Inhibition of AKT-mTOR signaling in human HGC-27 cells assessed as decrease in phosphorylated AKT expression at 5 to 15 uM incubated for 48 hrs by Western blot analysis; type: cell-based; details: dose 5-15 µM
[3] = system: MGC-803; test: Induction of apoptosis in human MGC-803 cells assessed as increase in cleaved PARP level incubated for 48 hrs by Western blot analysis; type: functional, cell-based; details: dose 10-20 µM
[4] = system: PC-3; test: cells; details: Homo sapiens, PC-3, 72 h
Description: Anticancer activity against human PC-3 cells assessed as inhibition of cell proliferation incubated for 72 hrs by MTT assay

[5] = Cytotoxicity against human L02 cells assessed as inhibition of cell proliferation incubated for 72 hrs by MTT assay; type: toxicity, cell-based
[6] = system: HGC-27; test: Effect on mTOR expression in human HGC-27 cells at 5 to 15 uM incubated for 48 hrs by Western blot analysis; type: functional, cell-based; details: dose 5-15 µM
[7] = molecular target: Cytochrome P450 2C19 (Homo sapiens, UniProt P33261); test: Inhibition of CYP2C19 in human liver microsomes using omeprazole as substrate preincubated for 5 mins followed by NADPH addition and measured after 10 mins by LC-MS/MS analysis; type: ADME, Microsome
[8] = system: MGC-803; test: Induction of apoptosis in LC3B knockout human MGC-803 cells assessed as increase in cleaved caspase 9 level at 20 uM by Western blot analysis; type: functional, cell-based
[9] = molecular target: Tyrosine-protein kinase JAK3 (Homo sapiens, UniProt P52333); test: Inhibition of JAK3 (unknown origin) in presence of ATP at Km concentration
[10] = system: DU-145; test: cells; details: Homo sapiens, DU-145, 72 h
Description: Anticancer activity against human DU-145 cells assessed as inhibition of cell proliferation incubated for 72 hrs by MTT assay

[11] = Toxicity in female BALB/c nude mouse model xenografted with human HGC-27 cells assessed as effect on lung at 30 mg/kg, ip administered for 21 days by H and E staining based analysis; type: organism-based; details: in vivo, 504 h, time 21 day

Chain of Tyrosine-protein kinase JAK3 (P52333 whole entry): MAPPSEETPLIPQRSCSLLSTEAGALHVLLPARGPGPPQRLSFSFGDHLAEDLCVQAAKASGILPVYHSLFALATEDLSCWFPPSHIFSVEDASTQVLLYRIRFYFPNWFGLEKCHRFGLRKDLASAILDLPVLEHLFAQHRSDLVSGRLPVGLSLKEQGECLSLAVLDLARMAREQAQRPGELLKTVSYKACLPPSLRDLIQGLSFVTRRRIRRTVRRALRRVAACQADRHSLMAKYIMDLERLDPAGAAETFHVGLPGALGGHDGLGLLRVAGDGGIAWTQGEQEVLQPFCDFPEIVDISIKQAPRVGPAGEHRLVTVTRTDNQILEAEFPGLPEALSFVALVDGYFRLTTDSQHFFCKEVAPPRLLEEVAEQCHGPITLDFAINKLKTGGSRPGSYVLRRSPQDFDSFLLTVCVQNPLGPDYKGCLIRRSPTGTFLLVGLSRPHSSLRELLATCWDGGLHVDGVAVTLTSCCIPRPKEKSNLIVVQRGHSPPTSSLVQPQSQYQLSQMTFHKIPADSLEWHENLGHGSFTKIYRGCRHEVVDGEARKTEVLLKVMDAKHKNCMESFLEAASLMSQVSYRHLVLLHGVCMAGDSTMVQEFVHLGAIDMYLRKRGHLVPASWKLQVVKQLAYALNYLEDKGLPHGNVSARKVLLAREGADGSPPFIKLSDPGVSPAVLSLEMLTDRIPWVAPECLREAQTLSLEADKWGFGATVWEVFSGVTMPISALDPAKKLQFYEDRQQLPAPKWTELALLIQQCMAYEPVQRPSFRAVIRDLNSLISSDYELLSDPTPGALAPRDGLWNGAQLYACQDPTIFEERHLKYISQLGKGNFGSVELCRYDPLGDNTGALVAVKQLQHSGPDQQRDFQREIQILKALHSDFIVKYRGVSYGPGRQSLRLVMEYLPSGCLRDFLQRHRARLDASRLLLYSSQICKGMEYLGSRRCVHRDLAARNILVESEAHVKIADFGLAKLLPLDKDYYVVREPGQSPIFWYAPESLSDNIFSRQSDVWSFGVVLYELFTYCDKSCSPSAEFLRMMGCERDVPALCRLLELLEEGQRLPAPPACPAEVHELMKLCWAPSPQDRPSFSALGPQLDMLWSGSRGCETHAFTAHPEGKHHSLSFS
Chain of Cytochrome P450 2C19 (P33261 whole entry): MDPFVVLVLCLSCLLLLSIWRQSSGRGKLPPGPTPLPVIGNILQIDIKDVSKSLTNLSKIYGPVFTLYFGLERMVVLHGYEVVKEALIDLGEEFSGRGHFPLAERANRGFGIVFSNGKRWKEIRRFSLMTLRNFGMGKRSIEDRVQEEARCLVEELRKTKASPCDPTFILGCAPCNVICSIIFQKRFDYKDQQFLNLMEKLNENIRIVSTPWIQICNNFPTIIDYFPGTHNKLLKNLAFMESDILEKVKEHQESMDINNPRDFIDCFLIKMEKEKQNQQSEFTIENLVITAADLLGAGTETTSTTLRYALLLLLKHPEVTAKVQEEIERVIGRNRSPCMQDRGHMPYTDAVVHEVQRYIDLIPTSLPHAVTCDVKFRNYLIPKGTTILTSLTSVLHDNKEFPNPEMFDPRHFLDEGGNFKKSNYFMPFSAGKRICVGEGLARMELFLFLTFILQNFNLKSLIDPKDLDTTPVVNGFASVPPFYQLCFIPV

With `C=CS(=O)(=O)N1CCC[C@@H](Nc2nc(N)nc(Nc3cccc(Oc4ccccc4)c3)n2)C1` the IC50 [1] was 16.6 µM, the inhibition [2] was “Active” and the Activity [3] was “Dose-dependent-effect”. The IC50 [4] was 17.2 µM, the IC50 at 72 h [5] was over 32 µM and the Activity [6] was “inactive”. The IC50 [7] was over 100 µM, the Activity [8] was “Active” and the IC50 [9] was 0.437 µM. The IC50 [10] was 10.4 µM and the Activity [11] was “Non-toxic”.
